Laboratory results reported in BindingDB's records for doi:10.1111/j.1432-1033.1992.tb17252.x (Universit&Eacute, 1992).
Non-standard residues stand in square brackets, D forms with d. Residues, ends and D or L forms follow the SMILES beside them. ξ: configuration not given here. Ile(3ξ) = CCC(C)[C@H](N)C(=O)O

Molecular target: T1, Pituitary adenylate cyclase-activating polypeptide (Homo sapiens, UniProt P18509)
T1 sequence (P18509 whole entry): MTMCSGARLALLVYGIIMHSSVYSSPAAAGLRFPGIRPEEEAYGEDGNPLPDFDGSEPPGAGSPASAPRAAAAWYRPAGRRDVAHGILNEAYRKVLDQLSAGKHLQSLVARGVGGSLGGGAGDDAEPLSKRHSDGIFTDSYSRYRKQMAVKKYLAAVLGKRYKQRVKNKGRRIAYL

Ki | SMILES
150 nM | CSCC[C@H](NC(=O)[C@H](CCC(N)=O)NC(=O)[C@H](CCCCN)NC(=O)[C@H](CCCN=C(N)N)NC(=O)[C@H](Cc1ccc(O)cc1)NC(=O)[C@H](CCCN=C(N)N)NC(=O)[C@H](CO)NC(=O)[C@H](Cc1ccc(O)cc1)NC(=O)[C@H](CO)NC(=O)[C@H](CC(=O)O)NC(=O)[C@@H](NC(=O)[C@@H](N)Cc1ccccc1)[C@@H](C)O)C(=O)N[C@@H](C)C(=O)N[C@H](C(=O)N[C@@H](CCCCN)C(=O)N[C@@H](CCCCN)C(=O)N[C@@H](Cc1ccc(O)cc1)C(=O)N[C@@H](CC(C)C)C(=O)N[C@@H](C)C(=O)N[C@@H](C)C(=O)N[C@H](C(=O)N[C@@H](CC(C)C)C(N)=O)C(C)C)C(C)C [PACAP(5-27)] (H-FTDSYSRYRKQMAVKKYLAAVL-NH2)
100 nM | CSCC[C@H](NC(=O)[C@H](CCC(N)=O)NC(=O)[C@H](CCCCN)NC(=O)[C@H](CCCN=C(N)N)NC(=O)[C@H](Cc1ccc(O)cc1)NC(=O)[C@H](CCCN=C(N)N)NC(=O)[C@H](CO)NC(=O)[C@H](Cc1ccc(O)cc1)NC(=O)[C@H](CO)NC(=O)[C@H](CC(=O)O)NC(=O)[C@@H](N)[C@@H](C)O)C(=O)N[C@@H](C)C(=O)N[C@H](C(=O)N[C@@H](CCCCN)C(=O)N[C@@H](CCCCN)C(=O)N[C@@H](Cc1ccc(O)cc1)C(=O)N[C@@H](CC(C)C)C(=O)N[C@@H](C)C(=O)N[C@@H](C)C(=O)N[C@H](C(=O)N[C@@H](CC(C)C)C(N)=O)C(C)C)C(C)C [PACAP(6-27)] (H-TDSYSRYRKQMAVKKYLAAVL-NH2)
1300 nM | CSCC[C@H](NC(=O)[C@H](CCC(N)=O)NC(=O)[C@H](CCCCN)NC(=O)[C@H](CCCN=C(N)N)NC(=O)[C@H](Cc1ccc(O)cc1)NC(=O)[C@H](CCCN=C(N)N)NC(=O)[C@H](CO)NC(=O)[C@H](Cc1ccc(O)cc1)NC(=O)[C@H](CO)NC(=O)[C@@H](N)CC(=O)O)C(=O)N[C@@H](C)C(=O)N[C@H](C(=O)N[C@@H](CCCCN)C(=O)N[C@@H](CCCCN)C(=O)N[C@@H](Cc1ccc(O)cc1)C(=O)N[C@@H](CC(C)C)C(=O)N[C@@H](C)C(=O)N[C@@H](C)C(=O)N[C@H](C(=O)N[C@@H](CC(C)C)C(N)=O)C(C)C)C(C)C [PACAP(8-27)] (H-DSYSRYRKQMAVKKYLAAVL-NH2)

More lines, now with the values behind:

SMILES | Ki
CCC(C)[C@H](NC(=O)CNC(=O)[C@@H](N)CC(=O)O)C(=O)N[C@@H](Cc1ccccc1)C(=O)N[C@H](C(=O)N[C@@H](CC(=O)O)C(=O)N[C@@H](CO)C(=O)N[C@@H](Cc1ccc(O)cc1)C(=O)N[C@@H](CO)C(=O)N[C@@H](CCCN=C(N)N)C(=O)N[C@@H](Cc1ccc(O)cc1)C(=O)N[C@@H](CCCN=C(N)N)C(=O)N[C@@H](CCCCN)C(=O)N[C@@H](CCC(N)=O)C(=O)N[C@@H](CCSC)C(=O)N[C@@H](C)C(=O)N[C@H](C(=O)N[C@@H](CCCCN)C(=O)N[C@@H](CCCCN)C(=O)N[C@@H](Cc1ccc(O)cc1)C(=O)N[C@@H](CC(C)C)C(=O)N[C@@H](C)C(=O)N[C@@H](C)C(=O)N[C@H](C(=O)N[C@@H](CC(C)C)C(=O)NCC(=O)N[C@@H](CCCCN)C(=O)N[C@@H](CCCN=C(N)N)C(=O)N[C@@H](Cc1ccc(O)cc1)C(=O)N[C@@H](CCCCN)C(=O)N[C@@H](CCC(N)=O)C(=O)N[C@@H](CCCN=C(N)N)C(=O)N[C@H](C(=O)N[C@@H](CCCCN)C(=O)N[C@@H](CC(N)=O)C(=O)N[C@@H](CCCCN)C(N)=O)C(C)C)C(C)C)C(C)C)[C@@H](C)O (some centres not stated) [PACAP(3-38)] (H-DG[Ile(3ξ)]FTDSYSRYRKQMAVKKYLAAVLGKRYKQRVKNK-NH2) | 29 nM
CCC(C)[C@H](NC(=O)CN)C(=O)N[C@@H](Cc1ccccc1)C(=O)N[C@H](C(=O)N[C@@H](CC(=O)O)C(=O)N[C@@H](CO)C(=O)N[C@@H](Cc1ccc(O)cc1)C(=O)N[C@@H](CO)C(=O)N[C@@H](CCCN=C(N)N)C(=O)N[C@@H](Cc1ccc(O)cc1)C(=O)N[C@@H](CCCN=C(N)N)C(=O)N[C@@H](CCCCN)C(=O)N[C@@H](CCC(N)=O)C(=O)N[C@@H](CCSC)C(=O)N[C@@H](C)C(=O)N[C@H](C(=O)N[C@@H](CCCCN)C(=O)N[C@@H](CCCCN)C(=O)N[C@@H](Cc1ccc(O)cc1)C(=O)N[C@@H](CC(C)C)C(=O)N[C@@H](C)C(=O)N[C@@H](C)C(=O)N[C@H](C(=O)N[C@@H](CC(C)C)C(N)=O)C(C)C)C(C)C)[C@@H](C)O (some centres not stated) [PACAP(4-27)] (H-G[Ile(3ξ)]FTDSYSRYRKQMAVKKYLAAVL-NH2) | 500 nM
CSCC[C@H](NC(=O)[C@H](CCC(N)=O)NC(=O)[C@H](CCCCN)NC(=O)[C@H](CCCN=C(N)N)NC(=O)[C@H](Cc1ccc(O)cc1)NC(=O)[C@H](CCCN=C(N)N)NC(=O)[C@H](CO)NC(=O)[C@H](Cc1ccc(O)cc1)NC(=O)[C@H](CO)NC(=O)[C@@H](N)CC(=O)O)C(=O)N[C@@H](C)C(=O)N[C@H](C(=O)N[C@@H](CCCCN)C(=O)N[C@@H](CCCCN)C(=O)N[C@@H](Cc1ccc(O)cc1)C(=O)N[C@@H](CC(C)C)C(=O)N[C@@H](C)C(=O)N[C@@H](C)C(=O)N[C@H](C(=O)N[C@@H](CC(C)C)C(=O)NCC(=O)N[C@@H](CCCCN)C(=O)N[C@@H](CCCN=C(N)N)C(=O)N[C@@H](Cc1ccc(O)cc1)C(=O)N[C@@H](CCCCN)C(=O)N[C@@H](CCC(N)=O)C(=O)N[C@@H](CCCN=C(N)N)C(=O)N[C@H](C(=O)N[C@@H](CCCCN)C(=O)N[C@@H](CC(N)=O)C(=O)N[C@@H](CCCCN)C(N)=O)C(C)C)C(C)C)C(C)C [PACAP(8-38)] (H-DSYSRYRKQMAVKKYLAAVLGKRYKQRVKNK-NH2) | 30 nM
CSCC[C@H](NC(=O)[C@H](CCC(N)=O)NC(=O)[C@H](CCCCN)NC(=O)[C@H](CCCN=C(N)N)NC(=O)[C@H](Cc1ccc(O)cc1)NC(=O)[C@H](CCCN=C(N)N)NC(=O)[C@H](CO)NC(=O)[C@H](Cc1ccc(O)cc1)NC(=O)[C@@H](N)CO)C(=O)N[C@@H](C)C(=O)N[C@H](C(=O)N[C@@H](CCCCN)C(=O)N[C@@H](CCCCN)C(=O)N[C@@H](Cc1ccc(O)cc1)C(=O)N[C@@H](CC(C)C)C(=O)N[C@@H](C)C(=O)N[C@@H](C)C(=O)N[C@H](C(=O)N[C@@H](CC(C)C)C(=O)NCC(=O)N[C@@H](CCCCN)C(=O)N[C@@H](CCCN=C(N)N)C(=O)N[C@@H](Cc1ccc(O)cc1)C(=O)N[C@@H](CCCCN)C(=O)N[C@@H](CCC(N)=O)C(=O)N[C@@H](CCCN=C(N)N)C(=O)N[C@H](C(=O)N[C@@H](CCCCN)C(=O)N[C@@H](CC(N)=O)C(=O)N[C@@H](CCCCN)C(N)=O)C(C)C)C(C)C)C(C)C [PACAP(9-38)] (H-SYSRYRKQMAVKKYLAAVLGKRYKQRVKNK-NH2) | 50 nM
